Experimental data from ChEMBL document CHEMBL5316327, “Design and Synthesis of Orally Active Quinolyl Pyrazinamides as Sigma 2 Receptor Ligands for the Treatment of Pancreatic Cancer” (J Med Chem, 2023).
Activity calls are given as the source filed them. The calls are words filed in the database; no cut-off is given here.

Columns and labels:
MIA PaCa-2 [1] = assay: Additive ferroptosis activity in human MIA-PaCa-2 cells at upto 1 uM measured after 7 days in presence of erastin by crystal violet staining based analysis; assay type: functional, cell-based; conditions: time 7.0 day
MIA PaCa-2 [2] = assay: Additive cytotoxicity against human MIA PaCa-2 cells at upto 1 uM measured after 7 days in presence of copper chloride by crystal violet staining based analysis; assay type: functional, cell-based; conditions: time 7.0 day
[3] = Toxicity in C57BL/6 mouse assessed as effect on body weight at 30 mg/kg, po administered for 32 days and measured on day 1 to 3,5,6,8 to 32 in presence of copper sulfate; assay type: organism-based; conditions: in vivo, 768 h, time 32 day
MIA PaCa-2 [4] = assay: Synergistic cytotoxicity in human MIA PaCa-2 cells at upto 1 uM measured after 7 days in presence of irinotecan by crystal violet staining based analysis; assay type: functional, cell-based; conditions: time 7.0 day
MIA PaCa-2 [5] = assay: Synergistic ferroptosis activity in human MIA-PaCa-2 cells at upto 1 uM measured after 7 days in presence of FIN56 by crystal violet staining based analysis; assay type: functional, cell-based; conditions: time 7.0 day
PANC-1 = assay: cells; conditions: Homo sapiens, PANC-1, 72 h
MIA PaCa-2 [6] = assay: Induction of apoptosis in human MIA PaCa-2 cells assessed as late apoptotic cells at 1.0 uM measured after 48 hrs by Annexin V-Alexa Fluor 488/propidium iodide staining based flow cytometry (reference value: 6.63%); assay type: functional
HCT-116 [7] = assay: Antagonistic cytotoxicity against human HCT-116 cells at upto 1 uM measured after 6 days in presence of disulfiram by crystal violet staining based analysis; assay type: functional, cell-based; conditions: time 6.0 day
HCT-116 [8] = assay: Synergistic cytotoxicity against human HCT-116 cells at upto 1 uM measured after 6 days in presence of silver acetate by crystal violet staining based analysis; assay type: functional, cell-based; conditions: time 6.0 day
MIA PaCa-2 [9] = assay: Synergistic ferroptosis activity in human MIA-PaCa-2 cells at upto 1 uM measured after 7 days in presence of erastin by crystal violet staining based analysis; assay type: functional, cell-based; conditions: time 7.0 day
MIA PaCa-2 [10] = assay: Induction of apoptosis in human MIA PaCa-2 cells assessed as early apoptotic cells at […] measured after 48 hrs by Annexin V-Alexa Fluor 488/propidium iodide staining based flow cytometry (reference value: 4.11%); assay type: functional; conditions: dose 2.5 µM
[11] = AUC (0 to time of last detectable concentration) in CD-1 mouse plasma at 10 mg/kg, iv; assay type: ADME, organism-based; design: dose 10 mg/kg, route iv
[12] = target: Muscarinic acetylcholine receptor M1 (Homo sapiens, UniProt P11229); assay: Binding affinity to M1 receptor (unknown origin) assessed as inhibition constant
Panc02 = assay: Antitumor activity against mouse Panc02 cells xenografted in C57BL/6 mouse model assessed as delayed tumor growth at 30 mg/kg, po administered daily for 32 days in presence of copper sulfate by caliper method; assay type: functional, organism-based; conditions: time 32.0 day
HCT-116 [13] = assay: Induction of cell cycle arrest in human HCT-116 cells assessed as accumulation of cells in S phase at […] measured after 24 hrs by propidium iodide staining-based flow cytometric analysis (reference value: 47%); assay type: functional; conditions: dose 2.5 µM
D(3) dopamine receptor = D(3) dopamine receptor (Homo sapiens, UniProt P35462); assay: Binding affinity to dopamine D3 receptor (unknown origin) assessed as inhibition constant
HCT-116 [14] = assay: Induction of apoptosis in human HCT-116 cells assessed as necrotic cells at 10.0 uM measured after 48 hrs by Annexin V-Alexa Fluor 488/propidium iodide staining based flow cytometry (reference value: 9.06%); assay type: functional
MIA PaCa-2 [15] = assay: Synergistic cytotoxicity in human MIA PaCa-2 cells at upto 1 uM measured after 7 days in presence of gemcitabine by crystal violet staining based analysis; assay type: functional, cell-based; conditions: time 7.0 day
HCT-116 [16] = assay: Induction of apoptosis in human HCT-116 cells assessed as late apoptotic cells at 5.0 uM measured after 48 hrs by Annexin V-Alexa Fluor 488/propidium iodide staining based flow cytometry (reference value: 8.48%); assay type: functional
[17] = Metabolic stability in mouse liver microsomes assessed as half life at 10 uM measured upto 60 mins in presence of NADPH by LC-MS/MS analysis; assay type: ADME, Microsome; conditions: 1 h

Sequence of Muscarinic acetylcholine receptor M1 (P11229 whole entry): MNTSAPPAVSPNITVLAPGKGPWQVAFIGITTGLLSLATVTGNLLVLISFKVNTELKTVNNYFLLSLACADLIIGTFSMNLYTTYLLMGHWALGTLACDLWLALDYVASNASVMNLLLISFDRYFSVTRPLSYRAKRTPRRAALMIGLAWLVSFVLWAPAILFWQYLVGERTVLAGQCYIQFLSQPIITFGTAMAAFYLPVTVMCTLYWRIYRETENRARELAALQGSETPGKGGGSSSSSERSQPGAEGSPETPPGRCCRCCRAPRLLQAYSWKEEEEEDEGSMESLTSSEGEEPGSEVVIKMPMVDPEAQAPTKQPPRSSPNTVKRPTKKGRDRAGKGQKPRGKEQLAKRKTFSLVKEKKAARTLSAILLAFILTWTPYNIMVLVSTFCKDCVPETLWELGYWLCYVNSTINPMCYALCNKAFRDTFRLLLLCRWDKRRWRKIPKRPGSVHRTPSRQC
Sequence of D(3) dopamine receptor (P35462 whole entry): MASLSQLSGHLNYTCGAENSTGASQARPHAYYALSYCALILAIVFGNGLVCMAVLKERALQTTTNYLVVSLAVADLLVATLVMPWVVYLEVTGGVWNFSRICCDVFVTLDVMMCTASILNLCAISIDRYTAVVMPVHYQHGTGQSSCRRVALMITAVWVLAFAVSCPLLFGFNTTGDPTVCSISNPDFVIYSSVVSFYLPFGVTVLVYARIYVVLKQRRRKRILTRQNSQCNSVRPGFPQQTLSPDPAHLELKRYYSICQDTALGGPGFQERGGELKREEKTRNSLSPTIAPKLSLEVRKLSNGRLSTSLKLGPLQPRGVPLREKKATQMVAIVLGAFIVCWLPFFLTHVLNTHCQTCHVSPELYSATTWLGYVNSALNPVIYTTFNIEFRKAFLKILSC

Compound: CCN(CC)CCCC(C)Nc1cnc(C(=O)Nc2ccc(Cl)c3cccnc23)cn1 (stereo not given)
- Activity (MIA PaCa-2 [1]): Active
- Activity (MIA PaCa-2 [2]): Active
- Activity [3]: Non-Toxic
- Activity (MIA PaCa-2 [4]): inactive
- Activity (MIA PaCa-2 [5]): Active
- IC50 (PANC-1): 4 µM
- Activity (MIA PaCa-2 [6]): 30.8%
- Activity (HCT-116 [7]): inactive
- Activity (HCT-116 [8]): inactive
- Activity (MIA PaCa-2 [9]): Active
- Activity (MIA PaCa-2 [10]): 13.89%
- AUC [11]: 2600 ng·h/mL
- Ki [12]: 4.2 µM
- Activity (Panc02): Active
- Activity (HCT-116 [13]): 33%
- Ki (D(3) dopamine receptor): 0.638 µM
- Activity (HCT-116 [14]): 2.37%
- Activity (MIA PaCa-2 [15]): inactive
- Activity (HCT-116 [16]): 18.39%
- t1/2 [17]: 1 h
